Test results reported in US20090018111A1, “Novel Antimicrobial Medicament” (priority 2004, published 2009).
Where two headings read alike, the source gives them in different places.

Columns and labels:
P. mirabiris GN2425 = experiment: Sensitivity test (agar dilution); assay type: cell-based, Proteus mirabilis; settings: Proteus mirabilis
Method: The antibacterial activities were tested against various 18 bacteria (27 standard strains) which are representative bacteria caused clinically infectious disease (Staphylococcus aureus 3 strains, Staphylococcus epidermidis 1 strain, Micrococcus luteus 1 strain, Streptococcus pyogenes 1 strain, Enterococcus faecalis 1 strain, Enterococcus faecium 1 strain, Bacillus subtilis 1 strain, Escherichia coli 3 strains, Klebsiella pneumoniae 1 strain, Proteus mirabilis 1 strain, Proteus vulgaris 2 strains, Pseudomonas aeruginosa 3 strains, Serratia marcescens 2 strains, Enterobacter aerogenes 1 strain, Stenotrophomonas maltophilia 1 strain, Enterobacter cloacae 1 strain, Citrobacter freundii 1 strain, Moraxella catarrhalis 2 strains).
(§1) According to the standard method of Japan Chemotherapeutic Society (Chemotherapy, vol. […], p 76-79 (1981)) the test was carried out using the agar dilution method. After dissolving test samples in distilled water, agar medium containing the test samples was prepared in such a manner that the final concentration became twice serial dilution by pouring serially diluted combination drug solution or a single drug solution into agar medium. As agar medium was used Mueller Hinton Agar medium (MHA). Then, each strain was cultivated over night at 37° C. in an incubator and suspended in buffered saline solution with gelatin (BSG) in the concentration of about 10^6 CFU/ml. The suspension (about 5 μl) containing test strains was inoculated to the medium containing the test samples by Micro Planter.
When the sample is subjected to sensitivity test, this mixed solution was diluted by twice serial dilution method.
(§2) Furthermore, when the drug is solely used, each test sample was used as it is, and diluted by twice serial dilution method from the maximum concentration to the minimum concentration.
FIC index based on MIC value was calculated. […] Namely, when FIC index calculated by the following formula is equal or less than 1, the enhanced effect of the combination drug in said ratio is considered as positive. When FIC index is over 1, the enhanced effect of the combination drug in said ratio is considered as negative.
Formula of FIC index: FIC index=(MIC of Drug A in combination/MIC of Drug A alone)+(MIC of Drug B in combination/MIC of Drug B alone) N.C. in tables means being not calculated.

B. cepacia 14300 = experiment: Sensitivity test (agar dilution), clinical isolate; assay type: cell-based, Burkholderia cepacia
Method: (§3) In addition, the antibacterial activities were tested against strains which are comparatively less sensitive to β-lactam compounds, namely clinically isolated 13 strains of Acinetobacter calcoaceticus and Acinetobacter lwoffi, clinically isolated 11 strains of Serratia marcescens, clinically isolated 12 strains of Burkholderia cepacia, and clinically isolated 15 strains of Pseudomonas aeruginosa.
as §1
(§4) Each drug was weighed, and dissolved in distilled water to give a test sample. When the drugs are used in combination, two kinds of solution containing each drug were mixed so as to be various ratio of concentration to give a mixed solution. When the sample is subjected to sensitivity test, this mixed solution was diluted by twice serial dilution method.
as §2

B. cepacia 14427 = experiment: Sensitivity test (agar dilution), clinical isolate; assay type: cell-based, Burkholderia cepacia
Method: as §3, §1, §4, §2

B. cepacia 14428 = experiment: Sensitivity test (agar dilution), clinical isolate; assay type: cell-based, Burkholderia cepacia
Method: as §3, §1, §4, §2

B. cepacia 14429 = experiment: Sensitivity test (agar dilution), clinical isolate; assay type: cell-based, Burkholderia cepacia
Method: as §3, §1, §4, §2

B. cepacia 14430 = experiment: Sensitivity test (agar dilution), clinical isolate; assay type: cell-based, Burkholderia cepacia
Method: as §3, §1, §4, §2

B. cepacia 14607 = experiment: Sensitivity test (agar dilution), clinical isolate; assay type: cell-based, Burkholderia cepacia
Method: as §3, §1, §4, §2

B. cepacia 1892324 = experiment: Sensitivity test (agar dilution), clinical isolate; assay type: cell-based, Burkholderia cepacia
Method: as §3, §1, §4, §2

B. cepacia 1993527 = experiment: Sensitivity test (agar dilution), clinical isolate; assay type: cell-based, Burkholderia cepacia
Method: as §3, §1, §4, §2

B. cepacia 257-1 = experiment: Sensitivity test (agar dilution), clinical isolate; assay type: cell-based, Burkholderia cepacia
Method: as §3, §1, §4, §2

B. cepacia 7247 = experiment: Sensitivity test (agar dilution), clinical isolate; assay type: cell-based, Burkholderia cepacia
Method: as §3, §1, §4, §2

B. cepacia 7438 = experiment: Sensitivity test (agar dilution), clinical isolate; assay type: cell-based, Burkholderia cepacia
Method: as §3, §1, §4, §2

Measured: MIC

C[C@H]1[C@H](NC(=O)/C(=N\OC(C)(C)C(=O)O)c2csc(N)n2)C(=O)N1S(=O)(=O)O [AZT, aztreonam]
0.004 µg/mL: P. mirabiris GN2425; GN2425, Concomitant (AZT:SM = 1:1), P. mirabiris GN2425, read-out: MIC concomitant | P. mirabiris GN2425; GN2425, drug alone, P. mirabiris GN2425, read-out: MIC alone

C[C@@H](O)[C@H]1C(=O)N2C(C(=O)O)=C(S[C@@H]3CN[C@H](C(=O)N(C)C)C3)[C@H](C)[C@H]12 [MEPM, meropenem]
0.063 µg/mL: P. mirabiris GN2425; GN2425, alone, read-out: MIC
2 µg/mL: B. cepacia 14428; Burkholderia cepacia, 14428, alone | B. cepacia 14430; Burkholderia cepacia, 14430, Concomitant (ME:SM = 1:4) | B. cepacia 14430; Burkholderia cepacia, 14430, Concomitant (ME:SM = 2:1) | B. cepacia 14430; Burkholderia cepacia, 14430, alone | B. cepacia 1892324; Burkholderia cepacia, 1892324, Concomitant (ME:SM = 2:1) | B. cepacia 1892324; Burkholderia cepacia, 1892324, alone | B. cepacia 1993527; Burkholderia cepacia, 1993527, Concomitant (ME:SM = 1:4) | B. cepacia 1993527; Burkholderia cepacia, 1993527, Concomitant (ME:SM = 2:1) | B. cepacia 1993527; Burkholderia cepacia, 1993527, alone | B. cepacia 7247; Burkholderia cepacia, 7247, Concomitant (ME:SM = 1:1) | B. cepacia 7247; Burkholderia cepacia, 7247, Concomitant (ME:SM = 1:2) | B. cepacia 7247; Burkholderia cepacia, 7247, Concomitant (ME:SM = 1:4) | B. cepacia 7247; Burkholderia cepacia, 7247, Concomitant (ME:SM = 2:1) | B. cepacia 7247; Burkholderia cepacia, 7247, alone | B. cepacia 7438; Burkholderia cepacia, 7438, Concomitant (ME:SM = 1:1) | B. cepacia 7438; Burkholderia cepacia, 7438, Concomitant (ME:SM = 1:4) | B. cepacia 7438; Burkholderia cepacia, 7438, Concomitant (ME:SM = 2:1) | B. cepacia 7438; Burkholderia cepacia, 7438, alone
0.031 µg/mL: P. mirabiris GN2425; GN2425, Concomitant (MEPM:SM = 1:2), read-out: MIC | P. mirabiris GN2425; GN2425, Concomitant drug (MEPM:SM = 2:1), read-out: MIC
0.25 µg/mL: B. cepacia 14300; Burkholderia cepacia, 14300, Concomitant (ME:SM = 1:4) | B. cepacia 257-1; Burkholderia cepacia, 2571, Concomitant (ME:SM = 1:2) | B. cepacia 257-1; Burkholderia cepacia, 2571, Concomitant (ME:SM = 1:4)
0.5 µg/mL: B. cepacia 14300; Burkholderia cepacia, 14300, Concomitant (ME:SM = 1:1) | B. cepacia 14300; Burkholderia cepacia, 14300, Concomitant (ME:SM = 1:2) | B. cepacia 14300; Burkholderia cepacia, 14300, Concomitant (ME:SM = 2:1) | B. cepacia 14300; Burkholderia cepacia, 14300, alone | B. cepacia 14427; Burkholderia cepacia, 14427, Concomitant (ME:SM = 1:2) | B. cepacia 14427; Burkholderia cepacia, 14427, Concomitant (ME:SM = 1:4) | B. cepacia 14428; Burkholderia cepacia, 14428, Concomitant (ME:SM = 1:4) | B. cepacia 14429; Burkholderia cepacia, 14429, Concomitant (ME:SM = 1:2) | B. cepacia 14429; Burkholderia cepacia, 14429, Concomitant (ME:SM = 1:4) | B. cepacia 14607; Burkholderia cepacia, 14607, Concomitant (ME:SM = 1:2) | B. cepacia 14607; Burkholderia cepacia, 14607, Concomitant (ME:SM = 1:4) | B. cepacia 1892324; Burkholderia cepacia, 1892324, Concomitant (ME:SM = 1:4) | B. cepacia 257-1; Burkholderia cepacia, 2571, Concomitant (ME:SM = 1:1) | B. cepacia 257-1; Burkholderia cepacia, 2571, Concomitant (ME:SM = 2:1) | B. cepacia 257-1; Burkholderia cepacia, 2571, alone
1 µg/mL: B. cepacia 14427; Burkholderia cepacia, 14427, Concomitant (ME:SM = 1:1) | B. cepacia 14427; Burkholderia cepacia, 14427, Concomitant (ME:SM = 2:1) | B. cepacia 14427; Burkholderia cepacia, 14427, alone | B. cepacia 14428; Burkholderia cepacia, 14428, Concomitant (ME:SM = 1:1) | B. cepacia 14428; Burkholderia cepacia, 14428, Concomitant (ME:SM = 1:2) | B. cepacia 14428; Burkholderia cepacia, 14428, Concomitant (ME:SM = 2:1) | B. cepacia 14429; Burkholderia cepacia, 14429, Concomitant (ME:SM = 1:1) | B. cepacia 14429; Burkholderia cepacia, 14429, Concomitant (ME:SM = 2:1) | B. cepacia 14429; Burkholderia cepacia, 14429, alone | B. cepacia 14430; Burkholderia cepacia, 14430, Concomitant (ME:SM = 1:1) | B. cepacia 14430; Burkholderia cepacia, 14430, Concomitant (ME:SM = 1:2) | B. cepacia 14607; Burkholderia cepacia, 14607, Concomitant (ME:SM = 1:1) | B. cepacia 14607; Burkholderia cepacia, 14607, Concomitant (ME:SM = 2:1) | B. cepacia 14607; Burkholderia cepacia, 14607, alone | B. cepacia 1892324; Burkholderia cepacia, 1892324, Concomitant (ME:SM = 1:1) | B. cepacia 1892324; Burkholderia cepacia, 1892324, Concomitant (ME:SM = 1:2) | B. cepacia 1993527; Burkholderia cepacia, 1993527, Concomitant (ME:SM = 1:1) | B. cepacia 1993527; Burkholderia cepacia, 1993527, Concomitant (ME:SM = 1:2) | B. cepacia 7438; Burkholderia cepacia, 7438, Concomitant (ME:SM = 1:2)
≤ 0.016 µg/mL: P. mirabiris GN2425; GN2425, Concomitant (MEPM:SM = 1:1), read-out: MIC | P. mirabiris GN2425; GN2425, Concomitant (MEPM:SM = 1:4), read-out: MIC
